# Reference: patent US6914045B2, “Glycopeptide antibiotics” (Wyeth Holdings Corporation, priority 2001, dated 2005)
# Key:
# Test in all cases: in vitro antibacterial evaluation, MIC by broth dilution
# Type in all cases: cell-based
# Escherichia coli = tested on: Escherichia coli
# How it was run: (§1)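 Broth dilution per NCCLS M7-A2 in Mueller-Hinton II medium, inoculum 5×10^5 CFU/mL, antibiotic range 64-0.06 μg/mL. MIC taken as lowest concentration inhibiting growth; Gram-positive panel includes recent clinical isolates resistant to methicillin, penicillin and/or vancomycin.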
# Streptococcus sp. = details: broth dilution, 18 hours at 35° C.; for MIC Streptococcus pneumoniae (ATCC 6301): strain ATCC 6301; for MIC Streptococcus pneumoniae (GC 1894): strain GC 1894; for MIC Streptococcus pyogenes (GC 4563): strain GC 4563; for MIC Streptococcus agalactiae (GC 4564): strain GC 4564; for MIC Streptococcus pneumoniae (GC 4565): strain GC 4565
# How it was run: as §1
# Staphylococcus sp. = details: broth dilution, 18 hours at 35° C.; for MIC Staphylococcus aureus (GC 1131): strain GC 1131
# How it was run: as §1
# Enterococcus sp. = details: broth dilution, 18 hours at 35° C.; for MIC Enterococcus faecalis (ATCC 29212): strain ATCC 29212; for MIC Enterococcus faecalis (GC 2242): strain GC 2242; for MIC Enterococcus faecium (GC 2243): strain GC 2243; for MIC Enterococcus faecalis (GC 2691): strain GC 2691; for MIC Enterococcus faecalis (GC 3059): strain GC 3059; for MIC Enterococcus faecalis (GC 4552): strain GC 4552; for MIC Enterococcus faecalis (GC 4553): strain GC 4553; for MIC Enterococcus faecalis (GC 4554): strain GC 4554; for MIC Enterococcus faecium (GC 4556): strain GC 4556; for MIC Enterococcus faecium (GC 4557): strain GC 4557; for MIC Enterococcus avium (GC 4558): strain GC 4558; for MIC Enterococcus faecalis (GC 6189): strain GC 6189
# How it was run: as §1
smiles,measurement,setting,value
CC(c1ccccc1)C1NC(=O)CNC(=O)C(CO)NC(=O)C(C(O)C2CNC(=N)N2C2OC(CO)C(O)C(O)C2O)NC(=O)C(C(O)C2CNC(=N)N2)NC(=O)C(Cc2ccc(OC3OC(CO)C(OC4OC5COC(c6cccc(Oc7ccccc7)c6)OC5C(O)C4O)C(O)C3O)cc2)NC1=O (centres unmarked) [Example 170],MIC Escherichia coli (ATCC 25922),"Escherichia coli; strain ATCC 25922, 18 hours at 35° C.",>64 mg/L
same,MIC Escherichia coli (GC 4559),"Escherichia coli; strain GC 4559, 18 hours at 35° C.",>64 mg/L
same,MIC Escherichia coli (GC 4560),"Escherichia coli; strain GC 4560, 18 hours at 35° C.",4 mg/L
same,MIC Streptococcus pneumoniae (ATCC 6301),Streptococcus sp.; inoculum 5×10^5 CFU/mL,<0.06 mg/L
same,MIC Streptococcus pneumoniae (GC 1894),Streptococcus sp.; inoculum 5×10^5 CFU/mL,<0.06 mg/L
same,MIC Streptococcus pyogenes (GC 4563),Streptococcus sp.; inoculum 5×10^5 CFU/mL,<0.06 mg/L
same,MIC Streptococcus agalactiae (GC 4564),Streptococcus sp.; inoculum 5×10^5 CFU/mL,<0.06 mg/L
same,MIC Streptococcus pneumoniae (GC 4565),Streptococcus sp.; inoculum 5×10^5 CFU/mL,<0.06 mg/L
same,MIC Streptococcus pneumoniae (ATCC 6301),Streptococcus sp.,<0.06 mg/L
same,MIC Streptococcus pneumoniae (GC 1894),Streptococcus sp.,<0.06 mg/L
same,MIC Streptococcus pyogenes (GC 4563),Streptococcus sp.,<0.06 mg/L
same,MIC Streptococcus agalactiae (GC 4564),Streptococcus sp.,<0.06 mg/L
same,MIC Streptococcus pneumoniae (GC 4565),Streptococcus sp.,<0.06 mg/L
same,MIC Staphylococcus aureus (GC 1131),Staphylococcus sp.; inoculum 5×10^5 CFU/mL,4 mg/L
same,MIC Staphylococcus aureus (ATCC 29213),Staphylococcus sp.; strain ATCC 29213,4 mg/L
same,MIC Staphylococcus aureus (GC 1131),Staphylococcus sp.,4 mg/L
same,MIC Staphylococcus aureus (GC 3051),Staphylococcus sp.; strain GC 3051,4 mg/L
same,MIC Staphylococcus aureus (GC 3053),Staphylococcus sp.; strain GC 3053,1 mg/L
same,MIC Staphylococcus aureus (GC 4541),Staphylococcus sp.; strain GC 4541,2 mg/L
same,MIC Staphylococcus aureus (GC 4542),Staphylococcus sp.; strain GC 4542,4 mg/L
same,MIC Staphylococcus aureus-SMITH (GC 4543),Staphylococcus sp.; strain GC 4543,4 mg/L
same,MIC Staphylococcus aureus (GC 4544),Staphylococcus sp.; strain GC 4544,2 mg/L
same,MIC Staphylococcus aureus (GC 4545),Staphylococcus sp.; strain GC 4545,4 mg/L
same,MIC Staphylococcus haemolyticus (GC 4546),Staphylococcus sp.; strain GC 4546,8 mg/L
same,MIC Coagulase Negative Staphylococcus (GC 4547),Staphylococcus sp.; strain GC 4547,4 mg/L
same,MIC Coagulase Negative Staphylococcus (GC 4548),Staphylococcus sp.; strain GC 4548,1 mg/L
same,MIC Coagulase Negative Staphylococcus (GC 4549),Staphylococcus sp.; strain GC 4549,2 mg/L
same,MIC Coagulase Negative Staphylococcus (GC 4551),Staphylococcus sp.; strain GC 4551,1 mg/L
same,MIC Coagulase Negative Staphylococcus (GC 6257),Staphylococcus sp.; strain GC 6257,1 mg/L
same,MIC Enterococcus faecalis (ATCC 29212),Enterococcus sp.; inoculum 5×10^5 CFU/mL,4 mg/L
same,MIC Enterococcus faecalis (GC 2242),Enterococcus sp.; inoculum 5×10^5 CFU/mL,4 mg/L
same,MIC Enterococcus faecium (GC 2243),Enterococcus sp.; inoculum 5×10^5 CFU/mL,4 mg/L
same,MIC Enterococcus faecalis (GC 2691),Enterococcus sp.; inoculum 5×10^5 CFU/mL,4 mg/L
same,MIC Enterococcus faecalis (GC 3059),Enterococcus sp.; inoculum 5×10^5 CFU/mL,4 mg/L
same,MIC Enterococcus faecalis (GC 4552),Enterococcus sp.; inoculum 5×10^5 CFU/mL,4 mg/L
same,MIC Enterococcus faecalis (GC 4553),Enterococcus sp.; inoculum 5×10^5 CFU/mL,4 mg/L
same,MIC Enterococcus faecalis (GC 4554),Enterococcus sp.; inoculum 5×10^5 CFU/mL,2 mg/L
same,MIC Enterococcus faecium (GC 4556),Enterococcus sp.; inoculum 5×10^5 CFU/mL,4 mg/L
same,MIC Enterococcus faecium (GC 4557),Enterococcus sp.; inoculum 5×10^5 CFU/mL,4 mg/L
same,MIC Enterococcus avium (GC 4558),Enterococcus sp.; inoculum 5×10^5 CFU/mL,4 mg/L
same,MIC Enterococcus faecalis (GC 6189),Enterococcus sp.; inoculum 5×10^5 CFU/mL,4 mg/L
same,MIC Enterococcus faecalis (ATCC 29212),Enterococcus sp.,4 mg/L
same,MIC Enterococcus faecalis (GC 2242),Enterococcus sp.,4 mg/L
same,MIC Enterococcus faecium (GC 2243),Enterococcus sp.,4 mg/L
same,MIC Enterococcus faecalis (GC 2691),Enterococcus sp.,4 mg/L
same,MIC Enterococcus faecalis (GC 3059),Enterococcus sp.,4 mg/L
same,MIC Enterococcus faecalis (GC 4552),Enterococcus sp.,4 mg/L
same,MIC Enterococcus faecalis (GC 4553),Enterococcus sp.,4 mg/L
same,MIC Enterococcus faecalis (GC 4554),Enterococcus sp.,2 mg/L
same,MIC Enterococcus faecium (GC 4556),Enterococcus sp.,4 mg/L
same,MIC Enterococcus faecium (GC 4557),Enterococcus sp.,4 mg/L
same,MIC Enterococcus avium (GC 4558),Enterococcus sp.,4 mg/L
same,MIC Enterococcus faecalis (GC 6189),Enterococcus sp.,4 mg/L
